Laboratory results as given in paper PMC5790795, “N-Acetylmuramic Acid (MurNAc) Auxotrophy of the Oral Pathogen Tannerella forsythia: Characterization of a MurNAc Kinase and Analysis of Its Role in Cell Wall Metabolism” (Frontiers in Microbiology, 2018).

Target: T1, Tf_MurK (rTf_MurK; Tanf_08380) (Tannerella forsythia, UniProt G8UQH1)
T1 construct: gene BFO_0034
T1 sequence (G8UQH1 19-302): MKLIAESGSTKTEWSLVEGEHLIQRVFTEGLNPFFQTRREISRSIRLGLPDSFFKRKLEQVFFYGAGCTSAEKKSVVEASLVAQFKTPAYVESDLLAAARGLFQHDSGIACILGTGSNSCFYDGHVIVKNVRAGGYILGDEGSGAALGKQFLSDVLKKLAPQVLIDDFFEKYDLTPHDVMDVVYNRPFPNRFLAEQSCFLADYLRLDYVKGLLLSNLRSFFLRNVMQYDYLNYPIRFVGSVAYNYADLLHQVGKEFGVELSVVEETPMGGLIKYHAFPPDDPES
Assay: coupled pyruvate kinase / lactate dehydrogenase assay, NADH at […] nm
Assay type: biochemical
Conditions: ATP, 10 mM MgCl2, 50 mM phosphate pH 7.0, 20 °C; substrate inhibition constant

## CC(=O)N[C@H]1C(O)O[C@H](CO)[C@@H](O)[C@@H]1O[C@H](C)C(=O)O (stereo partly shown) [MurNAc]
  Ki(S): 4.2 mM
